In US11878965B2, “Inhibitors of peptidylarginine deiminases” (Gilead Sciences, Inc., priority 2020, dated 2024):

Target: human PAD4 (Homo sapiens (Human), UniProt Q9UM07)
Test: In Vitro PAD4 BAEE Biochemical Assay
Settings: geometric mean of multiple experiments
In short: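 Deimination of BAEE substrate (3 mM) measured as ammonia via o-phthalaldehyde–DTT isoindole fluorescence, 405/535 nm. Tag-free bacterially expressed human PAD4 at 5 nM with 2 mM calcium chloride, pH 7.6 MOPS buffer, 30 min compound preincubation then 2 h reaction, both at 25 °C.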

[1] = human PAD4, BAEE substrate, 5 nM PAD4, 2 mM calcium chloride, 3 mM BAEE
[2] = recombinant PAD4 5 nM, 2 mM calcium chloride, 3 mM BAEE substrate

Chain of human PAD4 (Q9UM07 2-663): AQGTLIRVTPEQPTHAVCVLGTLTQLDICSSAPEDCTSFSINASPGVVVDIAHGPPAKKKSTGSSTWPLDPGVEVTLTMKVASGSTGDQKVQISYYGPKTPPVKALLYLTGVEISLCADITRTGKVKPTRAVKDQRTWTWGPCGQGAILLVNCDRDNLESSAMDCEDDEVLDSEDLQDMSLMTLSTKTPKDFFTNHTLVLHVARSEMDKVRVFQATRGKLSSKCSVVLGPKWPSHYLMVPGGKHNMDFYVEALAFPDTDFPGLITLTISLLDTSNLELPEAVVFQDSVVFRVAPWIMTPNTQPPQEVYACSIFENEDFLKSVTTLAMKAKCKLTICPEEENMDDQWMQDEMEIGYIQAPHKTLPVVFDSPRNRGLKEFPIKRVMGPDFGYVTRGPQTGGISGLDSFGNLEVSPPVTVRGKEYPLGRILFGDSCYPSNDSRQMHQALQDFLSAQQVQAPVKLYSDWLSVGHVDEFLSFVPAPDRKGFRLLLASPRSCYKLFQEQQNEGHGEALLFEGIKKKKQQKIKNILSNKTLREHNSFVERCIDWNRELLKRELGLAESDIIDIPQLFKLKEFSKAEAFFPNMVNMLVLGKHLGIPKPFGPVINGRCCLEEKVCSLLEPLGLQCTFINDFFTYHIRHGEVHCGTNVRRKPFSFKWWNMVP

Row | IC50 [1] [nM] | IC50 [2] [nM] | SMILES
1 | 2210 | – | Cc1cc2c(cc1C(=O)N1CCC[C@@H](N)C1)nc(-c1cc3ccc(N(C(F)F)S(C)(=O)=O)nc3n1CC1CC1)n2C1CC1 [Example 60, (R)-N-(2-(5-(3-aminopiperidine-1-carbonyl)-1-cyclopropyl-6-methyl-1H-benzo[d]imidazol-2-yl)-1-(cyclopropylmethyl)-1H-pyrrolo[2,3-b]pyridin-6-yl)-N-(difluoromethyl) methanesulfonamide]
2 | – | 140 | COc1cc(C(=O)N2C[C@H](N)[C@@H]3CC[C@H]2C3)cc2nc(-c3cc4ccc([C@@H](C)NC(=O)c5cnc(C(F)(F)F)nc5)nc4n3CC3CC3)n(C)c12 [Example 314, N-((R)-1-(2-(5-((1S,4R,5R)-4-amino-2-azabicyclo[3.2.1]octane-2-carbonyl)-7-methoxy-1-methyl-1H-benzo[d]imidazol-2-yl)-1-(cyclopropylmethyl)-1H-pyrrolo[2,3-b]pyridin-6-yl)ethyl)-2-(trifluoromethyl)pyrimidine-5-carboxamide]
3 | 48.1 | – | COc1cc(C(=O)N2C[C@H](N)[C@@H]3CC[C@H]2C3)cc2nc(-c3cc4ccc([C@@H](C)NC(=O)c5cnn(C(F)F)c5)nc4n3CC3CC3)n(C)c12 [Example 224, N-((R)-1-(2-(5-((1S,4R,5R)-4-amino-2-azabicycIo[3.2.1]octane-2-carbonyl)-7-methoxy-1-methyl-1H-benzo[d]imidazol-2-yl)-1-(cyclopropylmethyl)-1H-pyrrolo[2,3-b]pyridin-6-yl)ethyl)-1-(difluoromethyl)-1H-pyrazole-4-carboxamide]
4 | – | 65.8 | [2H]C1([2H])[C@H](N)[C@@H]2CC[C@@H](C2)N1C(=O)c1cc(OC)c2c(c1)nc(-c1cc3ccc(C(C)NC(=O)C45CC(F)(C4)C5)nc3n1CC1CC1)n2C (stereo partly drawn) [Example 301, N-((R)-1-(2-(5-((1S,4R,5R)-4-amino-2-azabicyclo[3.2.1]octane-2-carbonyl-3,3-d2)-7-methoxy-1-methyl-1H-benzo[d]imidazol-2-yl)-1-(cyclopropylmethyl)-1H-pyrrolo[2,3-b]pyridin-6-yl)ethyl)-3-fluorobicyclo[1.1.1]pentane-1-carboxamide]
5 | – | 124 | COc1cc(C(=O)N2C[C@H](N)[C@@H]3CC[C@H]2C3)cc2nc(-c3cc4ccc([C@@H](C)NC(=O)C56CC(F)(C5)C6)nc4n3CC3CC3)n(C3CC3)c12 [Example 317, N-((R)-1-(2-(5-((1S,4R,5R)-4-amino-2-azabicyclo[3.2.1]octane-2-carbonyl)-1-cyclopropyl-7-methoxy-1H-benzo[d]imidazol-2-yl)-1-(cyclopropylmethyl)-1H-pyrrolo[2,3-b]pyridin-6-yl)ethyl)-3-fluorobicyclo[1.1.1]pentane-1-carboxamide]
6 | 91.4 | – | COc1cc(C(=O)N2C[C@H](N)CCN2C)cc2nc(-c3cc4ccc([C@@H](C)NC(=O)[C@@H](C)c5ccccc5)nc4n3CC3CC3)n(C)c12 [Example 165, (S)-N-((R)-1-(2-(5-((R)-5-amino-2-methylhexahydropyridazine-1-carbonyl)-7-methoxy-1-methyl-1H-benzo[d]imidazol-2-yl)-1-(cyclopropylmethyl)-1H-pyrrolo[2,3-b]pyridin-6-yl)ethyl)-2-phenylpropanamide]
7 | – | 84.2 | COc1cc(C(=O)N2C[C@H](N)[C@@H]3CC[C@H]2C3)cc2nc(-c3cc4ccc([C@@H](C)NC(=O)[C@@]5(C)CC5(F)F)nc4n3CC3CC3)n(C)c12 [Example 332, (R)-N-((R)-1-(2-(5-((1S,4R,5R)-4-amino-2-azabicyclo[3.2.1]octane-2-carbonyl)-7-methoxy-1-methyl-1H-benzo[d]imidazol-2-yl)-1-(cyclopropylmethyl)-1H-pyrrolo[2,3-b]pyridin-6-yl)ethyl)-2,2-difluoro-1-methylcyclopropane-1-carboxamide]
8 | – | 89.7 | C[C@@H](NC(=O)c1ccc(C(F)F)nc1)c1ccc2cc(-c3nc4cc(C(=O)N5C[C@H](N)[C@@H]6CC[C@H]5C6)cc(F)c4n3C3CC3)n(CC3CC3)c2n1 [Example 310, N-((R)-1-(2-(5-((1S,4R,5R)-4-amino-2-azabicyclo[3.2.1]octane-2-carbonyl)-1-cyclopropyl-7-fluoro-1H-benzo[d]imidazol-2-yl)-1-(cyclopropylmethyl)-1H-pyrrolo[2,3-b]pyridin-6-yl)ethyl)-6-(difluoromethyl)nicotinamide]
9 | 502 | – | COc1cc(C(=O)N2CCC[C@@H](N)C2)cc2nc(-c3cc4ccc([C@@H](C)NC(=O)C56CC(F)(C5)C6)c(F)c4n3CC3CC3)n(C)c12 [Example 143, N-((R)-1-(2-(5-((R)-3-aminopiperidine-1-carbonyl)-7-methoxy-1-methyl-1H-benzo[d]imidazol-2-yl)-1-(cyclopropylmethyl)-7-fluoro-1H-indol-6-yl)ethyl)-3-fluorobicyclo[1.1.1]pentane-1-carboxamide]
10 | 457 | – | COc1cc(C(=O)N2C[C@H](N)CC[C@@H]2C)cc2nc(-c3cc4ccc(-c5cccnc5N5CCOCC5)nc4n3CC3CC3)n(C)c12 [Example 261, ((2S,5R)-5-amino-2-methylpiperidin-1-yl)(2-(1-(cyclopropylmethyl)-6-(2-morpholinopyridin-3-yl)-1H-pyrrolo[2,3-b]pyridin-2-yl)-7-methoxy-1-methyl-1H-benzo[d]imidazol-5-yl)methanone]
11 | – | 128 | COc1cc(C(=O)N2C[C@H](N)[C@@H]3CC[C@H]2C3)cc2nc(-c3cc4ccc([C@@H](C)NC(=O)c5ccccc5C(F)(F)F)nc4n3CC3CC3)n(C)c12 [Example 292, N-((R)-1-(2-(5-((1S,4R,5R)-4-amino-2-azabicyclo [3.2.1]octane-2-carbonyl)-7-methoxy-1-methyl-1H-benzo [d]imidazol-2-yl)-1-(cyclopropylmethyl)-1H-pyrrolo[2,3-b]pyridin-6-yl)ethyl)-2-(trifluoromethyl) benzamide]
12 | 1050 | – | COc1cc(C(=O)N2CCC[C@@H](N)C2)cc2nc(-c3cc4ccc(N5CCCS5(=O)=O)nc4n3CC3CC3)n(C)c12 [Example 96, (R)-(3-aminopiperidin-1-yl)(2-(1-(cyclopropylmethyl)-6-(1,1-dioxidoisothiazolidin-2-yl)-1H-pyrrolo[2,3-b]pyridin-2-yl)-7-methoxy-1-methyl-1H-benzo[d]imidazol-5-yl) methanone]

Continued, molecule first:

Row | SMILES | IC50 [1] [nM] | IC50 [2] [nM]
13 | COc1cc(C(=O)N2[C@H]3CC[C@@H]2[C@H](N)C3)cc2nc(-c3cc4ccc([C@@H](C)NC(=O)C5(n6cccn6)CC5)nc4n3CC3CC3)n(C)c12 [Example 173, N-((R)-1-(2-(5-((1R,2R,4S)-2-amino-7-azabicyclo[2.2.1]heptane-7-carbonyl)-7-methoxy-1-methyl-1H-benzo[d]imidazol-2-yl)-1-(cyclopropylmethyl)-1H-pyrrolo[2,3-b]pyridin-6-yl)ethyl)-1-(1H-pyrazol-1-yl)cyclopropane-1-carboxamide] | 96.7 | –
14 | COc1cc(C(=O)N2[C@H]3CC[C@@H]2[C@H](N)C3)cc2nc(-c3cc4ccc([C@@H](C)NC(=O)C5CC5(F)F)cc4n3CC3CC3)n(C3CC3)c12 (stereo partly drawn) [Example 152, N-((R)-1-(2-(5-((1R,2R,4S)-2-amino-7-azabicyclo[2.2.1]heptane-7-carbonyl)-1-cyclopropyl-7-methoxy-1H-benzo[d]imidazol-2-yl)-1-(cyclopropylmethyl)-1H-indol-6-yl)ethyl)-2,2-difluorocyclopropane-1-carboxamide] | 63 | –
15 | COc1cc(C(=O)N2CCC[C@@H](N)C2)cc2nc(-c3cc4ccc(N(C)S(=O)(=O)c5ccccc5)nc4n3CC3CC3)n(C)c12 [Example 12, (R)-N-(2-(5-(3-aminopiperidine-1-carbonyl)-7-methoxy-1-methyl-1H-benzo[d]imidazol-2-yl)-1-(cyclopropylmethyl)-1H-pyrrolo [2,3-b]pyridin-6-yl)-N-methylbenzenesulfonamide] | 225 | –
16 | COc1cc(C(=O)N2C[C@H](N)CC[C@@H]2C)cc2nc(-c3cc4ccc(N(C(F)F)S(C)(=O)=O)nc4n3CC3CC3)n(C3CC3)c12 [Example 42, N-(2-(5-((2S,5R)-5-amino-2-methylpiperidine-1-carbonyl)-1-cyclopropyl-7-methoxy-1H-benzo[d]imidazol-2-yl)-1-(cyclopropylmethyl)-1H-pyrrolo [2,3-b]pyridin-6-yl)-N-(difluoromethyl) methanesulfonamide] | 221 | –
17 | COc1cc(C(=O)N2CCC[C@@H](N)C2)cc2nc(-c3cc4ccc(N(CC5CCC5)S(C)(=O)=O)nc4n3CC3CC3)n(C)c12 [Example 21, (R)-N-(2-(5-(3-aminopiperidine-1-carbonyl)-7-methoxy-1-methyl-1H-benzo[d]imidazol-2-yl)-1-(cyclopropylmethyl)-1H-pyrrolo[2,3-b]pyridin-6-yl)-N-(cyclobutylmethyl) methanesulfonamide] | 50000 | –
18 | COc1cc(C(=O)N2CCC[C@@H](N)C2)cc2nc(-c3cc4ccc(N(c5ccccc5)S(C)(=O)=O)nc4n3CC3CC3)n(C)c12 [Example 13, (R)-N-(2-(5-(3-aminopiperidine-1-carbonyl)-7-methoxy-1-methyl-1H-benzo[d]imidazol-2-yl)-1-(cyclopropylmethyl)-1H-pyrrolo [2,3-b]pyridin-6-yl)-N-phenylmethanesulfonamide] | 3570 | –
19 | COc1cc(C(=O)N2CCC[C@@H](N)C2)cc2nc(-c3cc4ccc(N(C)S(C)(=O)=O)cc4n3CC3CC3)n(C)c12 [Example 2, (R)-N-(2-(5-(3-aminopiperidine-1-carbonyl)-7-methoxy-1-methyl-1H-benzo[d]imidazol-2-yl)-1-(cyclopropylmethyl)-1H-indol-6-yl)-N-methylmethanesulfonamide] | 210 | –
20 | COc1cc(C(=O)N2[C@H]3CC[C@@H]2[C@H](N)C3)cc2nc(-c3cc4ccc([C@H]5CCCN5C(=O)C(C)(C)C)nc4n3CC3CC3)n(C)c12 [Example 246, 1-((R)-2-(2-(5-((1R,2R,4S)-2-amino-7-azabicyclo[2.2.1]heptane-7-carbonyl)-7-methoxy-1-methyl-1H-benzo[d]imidazol-2-yl)-1-(cyclopropylmethyl)-1H-pyrrolo[2,3-b]pyridin-6-yl)pyrrolidin-1-yl)-2,2-dimethylpropan-1-one] | 48.4 | –
